Tests used:
[1] = target: T1, Transient receptor potential cation channel subfamily V member 4 (Rattus norvegicus, UniProt Q9ERZ8); experiment: Antagonist activity at rat TRPV4 receptor expressed in HEK293 cells assessed as inhibition of EC80 of 4alpha-PDD-stimulated calcium flux after 10 mins; type: cell-based
[2] = Clearance in Wistar rat at 1.40 mg/kg, iv; type: ADME, organism-based; conditions: in vivo, 1.4 mg/kg
[3] = Half life in Wistar rat at 1.40 mg/kg, iv; type: ADME, organism-based; conditions: in vivo, 1.4 mg/kg
[4] = Cmax in Wistar rat at 29.73 mg/kg, po; type: ADME, organism-based; set-up: dose 29.73 mg/kg, route oral; conditions: in vivo
[5] = AUC (infinity) in Wistar rat at 29.73 mg/kg, po; type: ADME, organism-based; set-up: dose 29.73 mg/kg, time infinity, route oral; conditions: in vivo
[6] = Oral bioavailability in Wistar rat at 29.73 mg/kg; type: ADME, organism-based; conditions: in vivo
[7] = Plasma protein binding in rat; type: ADME, cell-free; conditions: read-out: PPB (converted)
[8] = Plasma protein binding in human; type: ADME, cell-free; conditions: read-out: PPB (converted)
[9] = target: Transient receptor potential cation channel subfamily V member 4 (Homo sapiens, UniProt Q9HBA0); experiment: Antagonist activity at human TRPV4 expressed in HEK293 cells assessed as inhibition of 20% hypotonic solution-induced Ca2+ influx; type: cell-based
[10] = target: T1, Transient receptor potential cation channel subfamily V member 4; experiment: Antagonist activity at rat TRPV4 expressed in HEK293 cells assessed as inhibition of 20% hypotonic solution-induced Ca2+ influx; type: cell-based
[11] = target: T2, Transient receptor potential cation channel subfamily V member 4 (Mus musculus, UniProt Q9EPK8); experiment: Antagonist activity at mouse TRPV4 receptor expressed in HEK293 cells assessed as inhibition of EC80 of 4alpha-PDD-stimulated calcium flux after 10 mins; type: cell-based
[12] = target: T2, Transient receptor potential cation channel subfamily V member 4; experiment: Antagonist activity at mouse TRPV4 receptor expressed in HEK293 cells assessed as inhibition of 4alpha-PDD-stimulated calcium flux after 10 mins; type: cell-based
[13] = target: Transient receptor potential cation channel subfamily V member 1 (Homo sapiens, UniProt Q8NER1); experiment: Antagonist activity at human TRPV1 receptor expressed in HEK293 cells assessed as inhibition of capsaicin-stimulated calcium flux after 10 mins; type: cell-based
[14] = Cmax in Wistar rat at 32.50 mg/kg, ip; type: ADME, organism-based; set-up: dose 32.5 mg/kg, route intraperitoneal; conditions: in vivo, 32.5 mg/kg
[15] = AUC (infinity) in Wistar rat at 32.50 mg/kg, ip; type: ADME, organism-based; set-up: dose 32.5 mg/kg, route intraperitoneal, time infinity; conditions: in vivo, 32.5 mg/kg
[16] = target: Adenosine receptor A1 (Homo sapiens) (UniProt P30542); experiment: Binding affinity to human adenosine A1 receptor assessed as inhibition of control specific binding at 10 uM
[17] = target: Adenosine receptor A3 (Homo sapiens) (UniProt P0DMS8); experiment: Binding affinity to human adenosine A3 receptor assessed as inhibition of control specific binding at 10 uM
[18] = target: Adrenergic receptor alpha-2 (Homo sapiens) (UniProt P08913+P18825+P18089); experiment: Binding affinity to non-selective alpha2 adrenergic receptor (unknown origin) assessed as inhibition of control specific binding at 10 uM; type: protein assay
[19] = target: Type-1 angiotensin II receptor (Homo sapiens) (UniProt P30556); experiment: Binding affinity to human AT1 receptor assessed as inhibition of control specific binding at 10 uM
[20] = target: D(1A) dopamine receptor (Homo sapiens) (UniProt P21728); experiment: Binding affinity to human D1 receptor assessed as inhibition of control specific binding at 10 uM
[21] = target: Endothelin-1 receptor (Homo sapiens) (UniProt P25101); experiment: Binding affinity to human ETA receptor assessed as inhibition of control specific binding at 10 uM
[22] = target: GABA-A receptor; agonist GABA site (Homo sapiens) (UniProt P14867+P47870+P28472+P48169+P34903+P18505+P47869+P31644+Q16445); experiment: Binding affinity to GABAA receptor (unknown origin) assessed as inhibition of control specific binding at 10 uM; type: protein-complex assay
[23] = target: Galanin receptor type 2 (Homo sapiens) (UniProt O43603); experiment: Binding affinity to human GAL2 receptor assessed as inhibition of control specific binding at 10 uM
[24] = target: C-X-C chemokine receptor type 2 (Homo sapiens) (UniProt P25025); experiment: Binding affinity to human CXCR2 receptor assessed as inhibition of control specific binding at 10 uM
[25] = target: C-C chemokine receptor type 1 (Homo sapiens) (UniProt P32246); experiment: Binding affinity to human CCR1 receptor assessed as inhibition of control specific binding at 10 uM
[26] = target: Histamine H1 receptor (Homo sapiens) (UniProt P35367); experiment: Binding affinity to human H1 receptor assessed as inhibition of control specific binding at 10 uM
[27] = target: Histamine H2 receptor (Homo sapiens) (UniProt P25021); experiment: Binding affinity to human H2 receptor assessed as inhibition of control specific binding at 10 uM
[28] = target: Melatonin receptor type 1A (Homo sapiens) (UniProt P48039); experiment: Binding affinity to human MT1 receptor assessed as inhibition of control specific binding at 10 uM
[29] = target: Muscarinic acetylcholine receptor M2 (Homo sapiens) (UniProt P08172); experiment: Binding affinity to human M2 receptor assessed as inhibition of control specific binding at 10 uM
[30] = target: Muscarinic acetylcholine receptor M3 (Homo sapiens) (UniProt P20309); experiment: Binding affinity to human M3 receptor assessed as inhibition of control specific binding at 10 uM
[31] = target: Substance-K receptor (Homo sapiens) (UniProt P21452); experiment: Binding affinity to human NK2 receptor assessed as inhibition of control specific binding at 10 uM
[32] = target: Neuropeptide Y receptor type 2 (Homo sapiens) (UniProt P49146); experiment: Binding affinity to human Y2 receptor assessed as inhibition of control specific binding at 10 uM
[33] = target: Neurotensin receptor type 1 (Homo sapiens) (UniProt P30989); experiment: Binding affinity to human NT1 receptor assessed as inhibition of control specific binding at 10 uM
[34] = target: Nociceptin receptor (Homo sapiens) (UniProt P41146); experiment: Binding affinity to human ORL1 receptor assessed as inhibition of control specific binding at 10 uM
[35] = target: Thromboxane A2 receptor (Homo sapiens) (UniProt P21731); experiment: Binding affinity to human TP receptor assessed as inhibition of control specific binding at 10 uM
[36] = target: 5-hydroxytryptamine receptor 3A (Homo sapiens) (UniProt P46098); experiment: Binding affinity to human 5-HT3 receptor assessed as inhibition of control specific binding at 10 uM
[37] = target: 5-hydroxytryptamine receptor 5A (Homo sapiens) (UniProt P47898); experiment: Binding affinity to human 5-HT5A receptor assessed as inhibition of control specific binding at 10 uM
[38] = target: 5-hydroxytryptamine receptor 6 (Homo sapiens) (UniProt P50406); experiment: Binding affinity to human 5-HT6 receptor assessed as inhibition of control specific binding at 10 uM
[39] = organism: Homo sapiens; experiment: Binding affinity to SST receptor (unknown origin) assessed as inhibition of control specific binding at 10 uM
[40] = organism: Homo sapiens; experiment: Binding affinity to SK+ calcium channel (unknown origin) assessed as inhibition of control specific binding at 10 uM
[41] = organism: Homo sapiens; experiment: Binding affinity to sodium channel site-2 (unknown origin) assessed as inhibition of control specific binding at 10 uM

T1 sequence (Q9ERZ8 whole entry): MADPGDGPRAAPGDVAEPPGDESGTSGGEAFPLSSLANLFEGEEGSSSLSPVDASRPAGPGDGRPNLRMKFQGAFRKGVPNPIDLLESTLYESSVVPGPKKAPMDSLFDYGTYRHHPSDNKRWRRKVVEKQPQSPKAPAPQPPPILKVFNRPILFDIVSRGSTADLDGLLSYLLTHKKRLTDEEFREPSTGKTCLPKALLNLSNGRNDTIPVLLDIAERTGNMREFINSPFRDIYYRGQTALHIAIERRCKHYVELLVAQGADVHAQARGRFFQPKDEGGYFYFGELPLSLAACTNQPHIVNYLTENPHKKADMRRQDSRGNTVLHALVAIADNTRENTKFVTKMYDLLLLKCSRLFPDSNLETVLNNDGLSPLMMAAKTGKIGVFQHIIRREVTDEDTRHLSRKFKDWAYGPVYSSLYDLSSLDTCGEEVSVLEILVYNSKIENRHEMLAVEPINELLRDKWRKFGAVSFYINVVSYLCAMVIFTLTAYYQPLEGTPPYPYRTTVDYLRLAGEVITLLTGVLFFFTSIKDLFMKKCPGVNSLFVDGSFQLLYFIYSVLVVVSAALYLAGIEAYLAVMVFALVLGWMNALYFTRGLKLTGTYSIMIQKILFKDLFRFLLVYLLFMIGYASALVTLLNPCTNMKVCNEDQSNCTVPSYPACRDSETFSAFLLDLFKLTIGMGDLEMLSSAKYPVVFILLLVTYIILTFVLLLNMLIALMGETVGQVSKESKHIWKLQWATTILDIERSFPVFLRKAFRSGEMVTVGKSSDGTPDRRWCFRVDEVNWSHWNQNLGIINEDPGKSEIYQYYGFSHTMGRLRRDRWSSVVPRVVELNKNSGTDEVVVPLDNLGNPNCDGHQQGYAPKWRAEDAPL
T2 sequence (Q9EPK8 whole entry): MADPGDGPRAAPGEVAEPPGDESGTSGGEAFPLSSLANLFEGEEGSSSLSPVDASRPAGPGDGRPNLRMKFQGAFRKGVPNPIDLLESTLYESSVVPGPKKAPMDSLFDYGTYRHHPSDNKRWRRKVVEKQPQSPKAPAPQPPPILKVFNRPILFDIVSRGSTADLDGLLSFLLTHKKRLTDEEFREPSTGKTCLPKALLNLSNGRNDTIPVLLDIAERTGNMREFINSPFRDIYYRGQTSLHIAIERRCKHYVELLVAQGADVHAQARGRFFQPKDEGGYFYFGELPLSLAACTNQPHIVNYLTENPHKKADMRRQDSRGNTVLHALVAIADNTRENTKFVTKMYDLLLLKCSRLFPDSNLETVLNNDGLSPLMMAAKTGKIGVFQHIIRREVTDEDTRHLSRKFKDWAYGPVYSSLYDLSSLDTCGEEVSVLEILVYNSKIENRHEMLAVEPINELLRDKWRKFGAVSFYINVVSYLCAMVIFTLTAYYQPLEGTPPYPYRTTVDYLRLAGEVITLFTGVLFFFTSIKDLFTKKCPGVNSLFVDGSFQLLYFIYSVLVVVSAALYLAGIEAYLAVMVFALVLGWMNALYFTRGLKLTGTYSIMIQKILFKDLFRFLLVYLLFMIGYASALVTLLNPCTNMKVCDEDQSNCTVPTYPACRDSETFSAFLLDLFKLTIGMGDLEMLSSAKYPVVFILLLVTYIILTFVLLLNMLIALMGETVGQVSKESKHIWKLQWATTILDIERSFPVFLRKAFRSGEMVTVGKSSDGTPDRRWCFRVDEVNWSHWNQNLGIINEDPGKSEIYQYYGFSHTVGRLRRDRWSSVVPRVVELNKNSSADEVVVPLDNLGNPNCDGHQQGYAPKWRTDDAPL
Sequence of Adenosine receptor A1 (Homo sapiens) (P30542 whole entry): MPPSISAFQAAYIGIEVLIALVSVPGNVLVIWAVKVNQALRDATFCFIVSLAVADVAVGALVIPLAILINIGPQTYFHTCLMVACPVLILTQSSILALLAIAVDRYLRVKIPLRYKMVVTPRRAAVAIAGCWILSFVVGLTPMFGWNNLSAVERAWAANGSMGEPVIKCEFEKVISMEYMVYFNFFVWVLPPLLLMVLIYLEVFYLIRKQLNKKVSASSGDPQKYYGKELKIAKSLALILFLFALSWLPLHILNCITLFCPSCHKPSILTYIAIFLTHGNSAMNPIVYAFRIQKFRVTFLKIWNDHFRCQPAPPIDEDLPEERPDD
Sequence of 5-hydroxytryptamine receptor 5A (Homo sapiens) (P47898 whole entry): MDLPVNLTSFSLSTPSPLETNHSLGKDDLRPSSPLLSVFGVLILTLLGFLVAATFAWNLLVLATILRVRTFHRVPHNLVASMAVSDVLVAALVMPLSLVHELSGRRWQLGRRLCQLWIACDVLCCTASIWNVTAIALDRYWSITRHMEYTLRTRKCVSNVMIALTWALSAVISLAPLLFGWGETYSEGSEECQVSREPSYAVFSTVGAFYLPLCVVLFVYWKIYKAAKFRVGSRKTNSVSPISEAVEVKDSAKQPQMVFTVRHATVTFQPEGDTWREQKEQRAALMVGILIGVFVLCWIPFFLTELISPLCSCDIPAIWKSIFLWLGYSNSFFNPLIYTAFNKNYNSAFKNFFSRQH
Sequence of Transient receptor potential cation channel subfamily V member 1 (Q8NER1 whole entry): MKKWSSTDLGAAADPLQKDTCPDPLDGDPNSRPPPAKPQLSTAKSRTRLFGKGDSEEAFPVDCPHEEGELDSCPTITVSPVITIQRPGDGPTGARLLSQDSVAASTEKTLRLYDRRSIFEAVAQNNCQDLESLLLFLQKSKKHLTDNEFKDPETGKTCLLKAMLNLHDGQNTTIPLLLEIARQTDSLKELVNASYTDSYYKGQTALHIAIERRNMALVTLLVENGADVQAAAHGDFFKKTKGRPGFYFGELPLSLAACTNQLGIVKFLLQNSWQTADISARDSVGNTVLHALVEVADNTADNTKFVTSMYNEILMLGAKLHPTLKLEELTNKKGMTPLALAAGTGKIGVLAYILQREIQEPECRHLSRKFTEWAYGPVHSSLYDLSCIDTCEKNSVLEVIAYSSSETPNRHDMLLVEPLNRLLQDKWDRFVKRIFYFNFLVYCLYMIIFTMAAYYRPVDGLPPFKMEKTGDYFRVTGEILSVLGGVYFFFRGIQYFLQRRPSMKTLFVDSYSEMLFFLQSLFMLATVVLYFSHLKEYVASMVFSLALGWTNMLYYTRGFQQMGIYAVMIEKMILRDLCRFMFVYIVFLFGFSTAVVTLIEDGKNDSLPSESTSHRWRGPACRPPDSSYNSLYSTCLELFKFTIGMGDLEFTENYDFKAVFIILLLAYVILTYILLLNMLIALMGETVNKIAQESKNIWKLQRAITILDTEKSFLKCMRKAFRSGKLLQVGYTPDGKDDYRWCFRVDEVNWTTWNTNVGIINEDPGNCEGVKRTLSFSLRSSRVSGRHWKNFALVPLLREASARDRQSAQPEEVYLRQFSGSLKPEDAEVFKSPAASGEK
Sequence of Muscarinic acetylcholine receptor M3 (Homo sapiens) (P20309 whole entry, looked up): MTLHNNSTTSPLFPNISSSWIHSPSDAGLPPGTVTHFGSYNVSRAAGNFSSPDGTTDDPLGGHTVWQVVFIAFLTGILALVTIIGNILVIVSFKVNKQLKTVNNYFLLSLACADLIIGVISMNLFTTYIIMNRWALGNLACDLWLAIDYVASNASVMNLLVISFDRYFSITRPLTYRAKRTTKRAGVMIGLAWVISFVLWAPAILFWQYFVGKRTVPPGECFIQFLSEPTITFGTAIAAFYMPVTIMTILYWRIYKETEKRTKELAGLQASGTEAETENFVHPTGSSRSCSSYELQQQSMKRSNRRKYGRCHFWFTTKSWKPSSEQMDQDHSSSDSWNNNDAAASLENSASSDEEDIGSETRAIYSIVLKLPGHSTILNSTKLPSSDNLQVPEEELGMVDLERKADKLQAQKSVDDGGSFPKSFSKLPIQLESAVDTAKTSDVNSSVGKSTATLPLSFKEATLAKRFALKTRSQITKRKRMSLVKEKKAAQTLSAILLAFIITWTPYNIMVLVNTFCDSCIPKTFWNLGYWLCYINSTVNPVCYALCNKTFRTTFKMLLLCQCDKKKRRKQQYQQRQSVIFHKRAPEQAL
Sequence of Galanin receptor type 2 (Homo sapiens) (O43603 whole entry): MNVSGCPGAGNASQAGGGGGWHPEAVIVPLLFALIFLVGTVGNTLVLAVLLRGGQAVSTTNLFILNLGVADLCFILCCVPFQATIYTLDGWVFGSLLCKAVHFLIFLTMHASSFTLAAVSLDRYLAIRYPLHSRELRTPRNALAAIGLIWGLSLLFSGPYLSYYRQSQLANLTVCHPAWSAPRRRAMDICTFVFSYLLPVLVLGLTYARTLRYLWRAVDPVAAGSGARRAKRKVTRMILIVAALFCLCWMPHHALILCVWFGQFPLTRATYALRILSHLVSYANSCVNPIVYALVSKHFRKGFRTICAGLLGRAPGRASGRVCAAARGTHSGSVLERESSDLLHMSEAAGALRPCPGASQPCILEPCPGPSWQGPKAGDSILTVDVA
Sequence of 5-hydroxytryptamine receptor 3A (Homo sapiens) (P46098 whole entry): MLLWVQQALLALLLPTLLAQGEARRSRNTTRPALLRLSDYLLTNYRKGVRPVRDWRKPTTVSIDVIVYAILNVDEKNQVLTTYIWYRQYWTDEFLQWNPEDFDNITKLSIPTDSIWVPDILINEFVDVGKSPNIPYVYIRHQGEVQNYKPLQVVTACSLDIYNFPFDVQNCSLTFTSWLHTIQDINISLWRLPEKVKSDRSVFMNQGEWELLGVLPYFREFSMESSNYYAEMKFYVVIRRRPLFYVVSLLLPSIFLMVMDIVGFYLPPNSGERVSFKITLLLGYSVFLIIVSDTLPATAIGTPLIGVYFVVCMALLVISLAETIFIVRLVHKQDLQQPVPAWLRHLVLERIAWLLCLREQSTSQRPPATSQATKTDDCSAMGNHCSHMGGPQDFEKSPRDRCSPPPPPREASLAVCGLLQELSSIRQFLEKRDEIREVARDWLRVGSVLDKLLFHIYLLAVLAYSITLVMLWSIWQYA

CC(C)N1CCN(S(=O)(=O)c2ccc(NC(=O)c3ccc(C(F)(F)F)cc3[N+](=O)[O-])cc2)CC1
IC50 [1]: 660 nM | clearance [2]: 23.7 mL/min/kg | half-life [3]: 42.6 min | Cmax [4]: 3820 ng/mL | AUC(0-inf) [5]: 10100 ng·h/mL | bioavailability [6]: 46.8% | fraction unbound [7]: 0.01 | fraction unbound [8]: 0.01 | IC50 [9]: 570 nM | IC50 [10]: 2100 nM | IC50 [11]: 320 nM | IC50 [12]: 57 nM | IC50 [13]: > 10 µM | Cmax [14]: 10600 ng/mL | AUC(0-inf) [15]: 16500 ng·h/mL | inhibition [16]: 2% | inhibition [17]: 10% | inhibition [18]: -1% | inhibition [19]: -6% | inhibition [20]: 1% | inhibition [21]: -4% | inhibition [22]: 3% | inhibition [23]: 4% | inhibition [24]: -4% | inhibition [25]: -5% | inhibition [26]: 4% | inhibition [27]: -4% | inhibition [28]: 5% | inhibition [29]: 6% | inhibition [30]: 21% | inhibition [31]: 15% | inhibition [32]: 1% | inhibition [33]: -6% | inhibition [34]: -2% | inhibition [35]: -6% | inhibition [36]: -3% | inhibition [37]: 0% | inhibition [38]: -2% | inhibition [39]: -1% | inhibition [40]: -4% | inhibition [41]: 17%
